{
  "source": "ChEMBL document CHEMBL4196101",
  "about": "“Dual Leucine Zipper Kinase Inhibitors for the Treatment of Neurodegeneration” (J Med Chem, 2018)",
  "biological_target": "Mitogen-activated protein kinase kinase kinase 12 (Homo sapiens) (UniProt Q12852)",
  "sequence (Q12852 whole entry, looked up)": "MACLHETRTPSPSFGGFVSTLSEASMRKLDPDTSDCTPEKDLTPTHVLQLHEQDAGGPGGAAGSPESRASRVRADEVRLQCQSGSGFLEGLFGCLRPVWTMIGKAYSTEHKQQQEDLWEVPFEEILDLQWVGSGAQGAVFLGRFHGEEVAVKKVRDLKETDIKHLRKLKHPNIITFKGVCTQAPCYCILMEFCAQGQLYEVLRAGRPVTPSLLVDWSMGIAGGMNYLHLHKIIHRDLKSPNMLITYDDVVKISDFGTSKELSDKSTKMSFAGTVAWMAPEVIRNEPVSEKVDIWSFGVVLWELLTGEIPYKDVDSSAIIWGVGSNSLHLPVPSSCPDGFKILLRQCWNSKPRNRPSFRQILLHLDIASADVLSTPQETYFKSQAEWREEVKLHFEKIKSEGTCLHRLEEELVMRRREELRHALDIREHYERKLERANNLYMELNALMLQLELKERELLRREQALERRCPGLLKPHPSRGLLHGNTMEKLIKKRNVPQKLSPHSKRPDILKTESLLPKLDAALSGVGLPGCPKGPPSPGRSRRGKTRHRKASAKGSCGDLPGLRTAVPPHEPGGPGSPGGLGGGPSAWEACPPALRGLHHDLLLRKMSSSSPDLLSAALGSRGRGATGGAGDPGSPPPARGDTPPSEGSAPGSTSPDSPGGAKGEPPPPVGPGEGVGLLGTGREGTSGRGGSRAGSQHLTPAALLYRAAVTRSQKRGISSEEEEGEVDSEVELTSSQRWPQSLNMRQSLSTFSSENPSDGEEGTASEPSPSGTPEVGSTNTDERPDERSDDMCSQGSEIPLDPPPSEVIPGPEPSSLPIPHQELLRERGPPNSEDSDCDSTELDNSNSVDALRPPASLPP",
  "assay": "Inhibition of DLK (unknown origin) using myelin basic protein as substrate preincubated for 15 mins measured after 30 mins in presence of [gamma-32P]ATP by scintillation counting",
  "data": [
    {"smiles": "CCSCc1ccc2c(c1)c1c3c(c4c5cc(CSCC)ccc5n5c4c1n2[C@H]1C[C@](O)(C(=O)OC)[C@]5(C)O1)CNC3=O", "note": "[CEP-1347]", "values": [
      {"measurement": "IC50", "value": 114, "unit": "nM"}
    ]}
  ]
}
